Source: patent US7939558B2, “Compounds having activity in increasing ion transport by mutant-CFTR and uses thereof” (The Regents of the University of California, priority 2004, dated 2011)
Where two headings read alike, the source gives them in different places.

How the values were obtained:
[1] = test system: UTP/calcium activated Cl− channel; assay: UTP/calcium activated Cl− current, short circuit current in human bronchial epithelial cells; format: cell-based; conditions: pretreatment 2 μM, apical UTP
Procedure: (§1) An analysis of compound specificity was also performed.

intracellular cAMP = assay: cAMP enzymatic immunoassay of FRT cell lysates; format: cell-based, rat; conditions: compounds 2 μM, 10 minutes, forskolin 0.5 μM
Procedure: cAMP activity was measured using the BIOTRAK enzymatic immunoassay (Amersham) of FRT cell lysates after incubation with the compounds for 10 minutes in the presence of 0.5 μM forskolin.
as §1

ΔF508-CFTR [2] = biological target: T1, ΔF508-CFTR (Homo sapiens, UniProt P13569, DEL508-508); assay: Short-circuit current in primary nasal epithelial cells from ΔF508 homozygous subject; format: cell-based; parameters: expressed in transfected cells; conditions: 27° C. 20-24 hours, amiloride, forskolin 20 μM
T1 sequence (P13569 with tags, fused parts or gaps DEL508-508): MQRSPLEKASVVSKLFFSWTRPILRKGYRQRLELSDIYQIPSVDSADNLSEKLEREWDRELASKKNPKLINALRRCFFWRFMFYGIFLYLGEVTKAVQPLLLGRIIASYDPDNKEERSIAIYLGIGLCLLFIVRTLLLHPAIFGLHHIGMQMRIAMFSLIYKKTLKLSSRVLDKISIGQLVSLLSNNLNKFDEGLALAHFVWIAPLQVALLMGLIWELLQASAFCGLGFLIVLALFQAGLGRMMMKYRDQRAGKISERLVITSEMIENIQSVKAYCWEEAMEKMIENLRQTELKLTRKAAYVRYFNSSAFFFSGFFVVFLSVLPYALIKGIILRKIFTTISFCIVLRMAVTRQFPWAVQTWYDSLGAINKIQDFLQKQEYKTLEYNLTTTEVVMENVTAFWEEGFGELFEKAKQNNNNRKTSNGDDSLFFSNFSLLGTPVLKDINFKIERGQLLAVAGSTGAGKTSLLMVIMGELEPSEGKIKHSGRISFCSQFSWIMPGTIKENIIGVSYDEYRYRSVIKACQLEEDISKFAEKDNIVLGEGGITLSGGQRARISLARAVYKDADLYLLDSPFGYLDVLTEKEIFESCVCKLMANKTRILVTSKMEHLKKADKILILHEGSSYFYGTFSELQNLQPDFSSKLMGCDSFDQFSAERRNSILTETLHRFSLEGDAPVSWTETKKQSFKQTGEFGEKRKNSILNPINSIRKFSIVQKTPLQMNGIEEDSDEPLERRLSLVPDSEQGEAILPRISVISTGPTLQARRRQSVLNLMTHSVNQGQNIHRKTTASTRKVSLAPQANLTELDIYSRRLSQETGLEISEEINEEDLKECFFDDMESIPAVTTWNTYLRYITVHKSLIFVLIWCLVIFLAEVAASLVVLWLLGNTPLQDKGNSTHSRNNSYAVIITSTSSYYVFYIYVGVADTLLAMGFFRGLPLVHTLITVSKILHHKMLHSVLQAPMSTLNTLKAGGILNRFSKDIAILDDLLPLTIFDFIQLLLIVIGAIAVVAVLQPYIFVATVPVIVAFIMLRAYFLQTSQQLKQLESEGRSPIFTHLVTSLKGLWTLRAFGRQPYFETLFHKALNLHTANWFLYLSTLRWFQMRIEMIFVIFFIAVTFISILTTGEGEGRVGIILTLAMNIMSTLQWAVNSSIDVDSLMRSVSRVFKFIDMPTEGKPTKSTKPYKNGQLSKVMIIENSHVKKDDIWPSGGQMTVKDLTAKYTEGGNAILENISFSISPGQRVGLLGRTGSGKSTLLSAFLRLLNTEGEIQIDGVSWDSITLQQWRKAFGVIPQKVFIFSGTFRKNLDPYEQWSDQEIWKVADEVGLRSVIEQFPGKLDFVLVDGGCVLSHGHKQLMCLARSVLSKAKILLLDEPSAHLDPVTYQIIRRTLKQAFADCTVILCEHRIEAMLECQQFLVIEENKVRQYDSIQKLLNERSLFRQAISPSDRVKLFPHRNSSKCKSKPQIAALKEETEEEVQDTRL
Procedure: For short-circuit measurements cells were cultured on Snapwell permeable supports (Corning-Costar) at 500,000 cells/insert. […] Patch clamp experiments were done on ΔF508-CFTR-expressing FRT cells plated in 35-mm Petri dishes.
Human nasal epithelial cells from ΔF508 homozygote subjects were cultured as polarized monolayers on permeable supports for transepithelial short-circuit current measurement.

ΔF508-CFTR [3] = biological target: T1, ΔF508-CFTR; assay: Fluorescence (YFP-H148Q/I152L) I− influx assay of ΔF508-CFTR potentiator activity in FRT cells; format: cell-based; parameters: expressed in transfected cells; conditions: 27° C. 24 h, forskolin 20 μM, read-out: Ka
Procedure: Clonal populations of Fischer rat thyroid (FRT) epithelial cells stably co-expressing human ΔF508-CFTR and the high-sensitivity halide-sensing green fluorescent analog YFP-H148Q/I152L (Galietta et al., A.S. (2001) FEBS Lett. 499, 220-224) were generated by liposome transfection and limiting dilution with Zeocin/G418 selection. More than 100 clones were evaluated for high fluorescence and ΔF508-CFTR plasma membrane targeting after growth at 27° C. for 24 hours. For screening, cells were cultured on plastic in Coon's modified F12 medium supplemented with 10% fetal bovine serum, 2 mM L-glutamine, 100 U/ml penicillin, and 100 μg/ml streptomycin, and plated on black 96-well microplates (Corning-Costar 3904) at 30,000 cells/well. For short-circuit measurements cells were cultured on Snapwell permeable supports (Corning-Costar) at 500,000 cells/insert. Human nasal epithelium cells from CF patients were cultured on Snapwell inserts and allowed to differentiate in a hormone-supplemented medium (Galietta et al., Am. J. Physiol., […]). Some measurements were done using stably transfected FRT cells expressing YFP-H148Q and wildtype- or G551D-CFTR (Galietta et al., (2001) J. Biol. Chem. 276, 19723-19728). Patch clamp experiments were done on ΔF508-CFTR-expressing FRT cells plated in 35-mm Petri dishes.
Screening was carried out using a Beckman integrated system containing a 3-meter robotic arm, CO2 incubator containing microplate carousel, plate-washer, liquid handling workstation, bar code reader, delidding station, plate sealer, and two FluoStar fluorescence plate readers (Galaxy, BMG Lab Technologies), each equipped with dual syringe pumps and HQ500/20X ([…]) excitation and HQ535/30M (535±15 nm) emission filters (Chroma). Software was written in VBA (Visual Basic for Applications) to compute baseline-subtracted fluorescence slopes (giving halide influx rates).
For assay of ΔF508-CFTR potentiator activity the incubator (27° C., 90% humidity, 5% CO2/95% air) was loaded with forty-to-sixty 96-well plates containing FRT cells. After an 18-24 hour incubation plates were washed 3 times with PBS (300 μl/wash) leaving 50 μl PBS. 10 μl of PBS containing 120 μM forskolin was added, and after 5 min test compounds (0.6 μl of 0.25 mM DMSO solution) were added to each well to give 2.5 μM final compound concentrations. After 15 min, 96-well plates were transferred to a plate reader for fluorescence assay. Each well was assayed individually for I^− influx by recording fluorescence continuously (200 ms per point) for 2 seconds (baseline) and then for 12 seconds after rapid (<1 s) addition of 160 μL of isosmolar PBS in which 137 mM Cl^− was replaced by I^−. I^− influx rates were computed from initial fluorescence versus time-curve slopes (determined by 3rd order polynomial regression) after normalization for total fluorescence (background subtracted initial fluorescence). All compound plates contained negative control (DMSO vehicle alone) and positive controls (genistein, 5 μM and 50 μM). Assay analysis indicated a Z′-factor of >0.7 (Zhang et al., J. Biomol. Screen 4:67-73 (1999)).
The high-throughput screen was designed to identify compounds that activated ΔF508-CFTR when expressed at the cell plasma membrane. FRT epithelial cells co-expressing ΔF508-CFTR and a high sensitivity yellow fluorescent protein-based halide indicator were incubated at 27° C. for 24 h to permit ΔF508-CFTR plasma membrane targeting (FIG. 1, panel A). After washing, forskolin (20 μM) and test compounds (2.5 μM) were added to individual wells of 96-well plates. The I^− influx assay was carried out ˜15 min later by measurement of the time course of decreasing YFP fluorescence after creation of an inwardly-directed I^− gradient. A high concentration of forskolin was used to identify ΔF508-CFTR potentiators that may interact directly with ΔF508-CFTR rather than alter cAMP concentration. […]

Compound	effect on magnitude or kinetics of calcium-activated Cl− current [1]	cAMP level (intracellular cAMP)	activation of ΔF508-CFTR current (ΔF508-CFTR [2])	EC50 (ΔF508-CFTR [3]; phenylglycine containing compounds) [nM]	EC50 (ΔF508-CFTR [3]; sulfonamide containing compounds) [nM]
CC(C)c1ccc(NC(=O)C(c2ccccc2)N(C)C(=O)Cc2c[nH]c3ccccc23)cc1 (centres unmarked) [Compound P-1, 2-[(2-1H-Indol-3-yl-acetyl)-methyl-amino]-N-(4-isopropyl-phenyl)-2-phenyl-acetamide]	no effect	did not increase cAMP above the level induced by forskolin	significant activation	300	
C=CCNC(=O)c1c[nH]c2ccc(S(=O)(=O)N(C)c3ccccc3OCC)cc2c1=O [Compound S-1, 6-[(2-Ethoxy-phenyl)-methyl-sulfamoyl]-4-oxo-1,4-dihydro-quinoline-3-carboxylic acid allylamide]	no effect	did not increase cAMP above the level induced by forskolin	significant activation		300
